Results taken from BindingDB's records for doi:10.1021/jm050513m (The University of Texas At Houston, 2005).
Numbered stars: 1 amine (or outer) side, 2 acyl side, 3 side chain; on linkers, the order of the positions; unused ones are H or OH. Square brackets hold non-standard residues; d marks the D form. Peptide text beside a SMILES is read from it. * marks the point of attachment. ξ: configuration not given here. pY = N[C@@H](Cc1ccc(OP(=O)(O)O)cc1)C(=O)O; Hydrocinnamoyl = O=C(CCc1ccccc1)*; X3 = O=C(CN1CCN([*:1])CC1)[*:2]; Ile(3ξ) = CCC(C)[C@H](N)C(=O)O; NMeL = CN[C@@H](CC(C)C)C(=O)O; Thr(3ξ) = CC(O)[C@H](N)C(=O)O; Pip = O=C(O)[C@@H]1CCCCN1; Pyrrolidide = C1CCN(*)C1; Aze = O=C(O)[C@@H]1CCN1; Cbz = O=C(OCc1ccccc1)*; Propionyl = CCC(=O)*; Ahx = NCCCCCC(=O)O; GABA = NCCCC(=O)O

Biological target: Signal transducer and activator of transcription 3 (Mus musculus, UniProt P42227)
Sequence (P42227 whole entry): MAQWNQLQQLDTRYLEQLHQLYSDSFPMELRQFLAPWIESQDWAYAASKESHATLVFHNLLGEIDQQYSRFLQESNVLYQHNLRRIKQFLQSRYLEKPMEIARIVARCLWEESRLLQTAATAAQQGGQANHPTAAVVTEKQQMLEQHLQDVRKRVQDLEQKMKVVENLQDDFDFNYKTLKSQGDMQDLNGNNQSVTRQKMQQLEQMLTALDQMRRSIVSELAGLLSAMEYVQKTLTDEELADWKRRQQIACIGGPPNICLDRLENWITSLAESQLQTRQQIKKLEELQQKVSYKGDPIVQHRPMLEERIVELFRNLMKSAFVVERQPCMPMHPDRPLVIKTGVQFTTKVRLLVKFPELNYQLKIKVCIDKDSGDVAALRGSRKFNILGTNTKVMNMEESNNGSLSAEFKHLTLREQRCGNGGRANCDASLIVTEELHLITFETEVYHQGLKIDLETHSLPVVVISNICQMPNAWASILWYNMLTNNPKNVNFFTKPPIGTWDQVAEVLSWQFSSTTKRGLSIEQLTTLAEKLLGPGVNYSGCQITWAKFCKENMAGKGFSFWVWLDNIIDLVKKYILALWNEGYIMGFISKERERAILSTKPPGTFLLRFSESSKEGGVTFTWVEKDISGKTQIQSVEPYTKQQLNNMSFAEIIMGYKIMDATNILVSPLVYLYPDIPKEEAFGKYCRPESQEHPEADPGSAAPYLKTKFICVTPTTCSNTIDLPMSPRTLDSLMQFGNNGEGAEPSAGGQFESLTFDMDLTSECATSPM
Experiment: Fluorescence Polarization Assay
Experimental: Fluorescence polarization (FP) binding assay is utilizing the intrinsic property of the fluorescent probe, which will have low polarization value when free in solution. On binding to a target, the polarization of the probe will increase. Reaction mixtures of full length STAT3 alpha and the probe were placed in wells of a 96-well microtiter plate. The test peptide solution was added to each well. Fluorescence polarization was then read in a Tecan Polarian plate reader. The IC50 values were obtained from nonlinear regression analysis in the one-site competition mode. Peptides were assayed three times using three separate Stat3-probe preparations. IC50 values are reported as the mean of three IC50 values +/- the standard deviation.

In the case of CC(=O)N[C@@H](Cc1ccc(OP(=O)(O)O)cc1)C(=O)N[C@@H](CC(C)C)C(=O)N1CCC[C@H]1C(=O)N[C@@H](CCC(N)=O)C(=O)N(C)C [4-[(2S)-2-{[(2S)-1-[(2S)-2-{[(1S)-3-carbamoyl-1-(dimethylcarbamoyl)propyl]carbamoyl}pyrrolidin-1-yl]-4-methyl-1-oxopentan-2-yl]carbamoyl}-2-acetamidoethyl]phenoxyphosphonic acid] (Ac-[pY]LPQ-NMe2), the IC50 is reported as 1.85 µM.

CC(=O)N[C@@H](Cc1ccc(OP(=O)(O)O)cc1)C(=O)N[C@@H](CC(C)C)C(=O)N1CCC[C@H]1C(=O)N[C@@H](CCC(=O)N(C)C)C(=O)N[C@H](C(N)=O)C(C)O (stereo partly drawn) [4-[(2S)-2-{[(2S)-1-[(2S)-2-{[(1S)-1-{[(1S,2S)-1-carbamoyl-2-hydroxypropyl]carbamoyl}-3-(dimethylcarbamoyl)propyl]carbamoyl}pyrrolidin-1-yl]-4-methyl-1-oxopentan-2-yl]carbamoyl}-2-acetamidoethyl]phenoxyphosphonic acid] (Ac-[pY]LPE(NMe2)[Thr(3ξ)]-NH2) gave an IC50 (pH 7.5, 22 °C) of 80 µM.

CC(=O)N[C@@H](Cc1ccc(OP(=O)(O)O)cc1)C(=O)N[C@@H](CC(C)C)C(=O)N1CCCC[C@H]1C(=O)N[C@@H](CCC(N)=O)C(=O)N[C@H](C(N)=O)C(C)O (stereo partly drawn) [4-[(2S)-2-{[(2S)-1-[(2S)-2-{[(1S)-3-carbamoyl-1-{[(1S,2S)-1-carbamoyl-2-hydroxypropyl]carbamoyl}propyl]carbamoyl}piperidin-1-yl]-4-methyl-1-oxopentan-2-yl]carbamoyl}-2-acetamidoethyl]phenoxyphosphonic acid] (Ac-[pY]L[Pip]Q[Thr(3ξ)]-NH2) was tested, and the IC50 (pH 7.5, 22 °C) was 1.24 µM.

Work on CC(=O)N[C@@H](Cc1ccc(OP(=O)(O)O)cc1)C(=O)N[C@@H](CC(C)C)C(=O)N1CCC[C@H]1C(=O)N[C@@H](CCC(N)=O)C(=O)N[C@H](C(N)=O)C(C)O (stereo partly drawn) [4-[(2S)-2-{[(2S)-1-[(2S)-2-{[(1S)-3-carbamoyl-1-{[(1S,2S)-1-carbamoyl-2-hydroxypropyl]carbamoyl}propyl]carbamoyl}pyrrolidin-1-yl]-4-methyl-1-oxopentan-2-yl]carbamoyl}-2-acetamidoethyl]phenoxyphosphonic acid] yielded an IC50 (pH 7.5, 22 °C) of 0.739 µM.

With CNC(=O)[C@H](CCC(N)=O)NC(=O)[C@@H]1CCCN1C(=O)[C@H](CC(C)C)NC(=O)[C@H](Cc1ccc(OP(=O)(O)O)cc1)NC(C)=O [4-[(2S)-2-{[(2S)-1-[(2S)-2-{[(1S)-3-carbamoyl-1-(methylcarbamoyl)propyl]carbamoyl}pyrrolidin-1-yl]-4-methyl-1-oxopentan-2-yl]carbamoyl}-2-acetamidoethyl]phenoxyphosphonic acid] (Ac-[pY]LPQ-NHMe) the IC50 was 0.882 µM.

In the case of CCC(=O)N[C@@H](Cc1ccc(OP(=O)(O)O)cc1)C(=O)N[C@@H](CC(C)C)C(=O)N1CCC[C@H]1C(=O)N[C@@H](CCC(N)=O)C(=O)N[C@H](C(N)=O)C(C)O (stereo partly drawn) [4-[(2S)-2-{[(2S)-1-[(2S)-2-{[(1S)-3-carbamoyl-1-{[(1S,2S)-1-carbamoyl-2-hydroxypropyl]carbamoyl}propyl]carbamoyl}pyrrolidin-1-yl]-4-methyl-1-oxopentan-2-yl]carbamoyl}-2-propanamidoethyl]phenoxyphosphonic acid] (Propionyl-[pY]LPQ[Thr(3ξ)]-NH2), the IC50 (pH 7.5, 22 °C) is reported as 0.497 µM.

Molecule CC(=O)N[C@@H](Cc1ccc(OP(=O)(O)O)cc1)C(=O)N[C@@H](CC(C)C)C(=O)N1CCN(CC(=O)N[C@@H](CCC(N)=O)C(=O)N[C@H](C(N)=O)C(C)O)CC1 (stereo partly drawn) [4-[(2S)-2-{[(2S)-1-[4-({[(1S)-3-carbamoyl-1-{[(1S,2S)-1-carbamoyl-2-hydroxypropyl]carbamoyl}propyl]carbamoyl}methyl)piperazin-1-yl]-4-methyl-1-oxopentan-2-yl]carbamoyl}-2-acetamidoethyl]phenoxyphosphonic acid] (Ac-[pY]L[X3]Q[Thr(3ξ)]-NH2) has an IC50 (pH 7.5, 22 °C) of 57.1 µM.

In the case of CCC(C)[C@H](NC(=O)[C@H](Cc1ccc(OP(=O)(O)O)cc1)NC(C)=O)C(=O)N1CCC[C@H]1C(=O)N[C@@H](CCC(N)=O)C(=O)N[C@H](C(N)=O)C(C)O (stereo partly drawn) [4-[(2S)-2-{[(2S)-1-[(2S)-2-{[(1S)-3-carbamoyl-1-{[(1S)-1-carbamoyl-2-hydroxypropyl]carbamoyl}propyl]carbamoyl}pyrrolidin-1-yl]-3-methyl-1-oxopentan-2-yl]carbamoyl}-2-acetamidoethyl]phenoxyphosphonic acid] (Ac-[pY][Ile(3ξ)]PQ[Thr(3ξ)]-NH2), the IC50 (pH 7.5, 22 °C) is reported as 1.07 µM.

With CC(=O)N[C@@H](Cc1ccc(OP(=O)(O)O)cc1)C(=O)N[C@@H](CC(C)C)C(=O)N1CC[C@H]1C(=O)N[C@@H](CCC(N)=O)C(=O)N[C@H](C(N)=O)C(C)O (stereo partly drawn) [4-[(2S)-2-{[(2S)-1-[(2S)-2-{[(1S)-3-carbamoyl-1-{[(1S,2S)-1-carbamoyl-2-hydroxypropyl]carbamoyl}propyl]carbamoyl}azetidin-1-yl]-4-methyl-1-oxopentan-2-yl]carbamoyl}-2-acetamidoethyl]phenoxyphosphonic acid] (Ac-[pY]L[Aze]Q[Thr(3ξ)]-NH2) the IC50 (pH 7.5, 22 °C) was 1.66 µM.

For CC(=O)N[C@@H](Cc1ccc(OP(=O)(O)O)cc1)C(=O)N(C)[C@@H](CC(C)C)C(=O)N1CCC[C@H]1C(=O)N[C@@H](CCC(N)=O)C(=O)N[C@H](C(N)=O)C(C)O (stereo partly drawn) [4-[(2S)-2-{[(2S)-1-[(2S)-2-{[(1S)-3-carbamoyl-1-{[(1S,2S)-1-carbamoyl-2-hydroxypropyl]carbamoyl}propyl]carbamoyl}pyrrolidin-1-yl]-4-methyl-1-oxopentan-2-yl](methyl)carbamoyl}-2-acetamidoethyl]phenoxyphosphonic acid] (Ac-[pY][NMeL]PQ[Thr(3ξ)]-NH2), the IC50 (pH 7.5, 22 °C) was greater than 100 µM.

For CC(=O)N[C@@H](Cc1ccc(OP(=O)(O)O)cc1)C(=O)N[C@@H](CC(C)C)C(=O)N1CCC[C@H]1C(=O)N[C@@H](CCC(N)=O)C(=O)N1CCCC1 [4-[(2S)-2-{[(2S)-1-[(2S)-2-{[(2S)-4-carbamoyl-1-oxo-1-(pyrrolidin-1-yl)butan-2-yl]carbamoyl}pyrrolidin-1-yl]-4-methyl-1-oxopentan-2-yl]carbamoyl}-2-acetamidoethyl]phenoxyphosphonic acid] (Ac-[pY]LPQ-Pyrrolidide), the IC50 was 2.11 µM.

CC(C)C[C@H](NC(=O)[C@H](Cc1ccc(OP(=O)(O)O)cc1)NC(=O)OCc1ccccc1)C(=O)N1CCC[C@H]1C(=O)N[C@@H](CCC(N)=O)C(=O)N[C@H](C(N)=O)C(C)O (stereo partly drawn) [4-[(2S)-2-{[(benzyloxy)carbonyl]amino}-2-{[(2S)-1-[(2S)-2-{[(1S)-3-carbamoyl-1-{[(1S,2S)-1-carbamoyl-2-hydroxypropyl]carbamoyl}propyl]carbamoyl}pyrrolidin-1-yl]-4-methyl-1-oxopentan-2-yl]carbamoyl}ethyl]phenoxyphosphonic acid] (Cbz-[pY]LPQ[Thr(3ξ)]-NH2) gave an IC50 (pH 7.5, 22 °C) of 0.75 µM.

For CC(=O)N[C@@H](Cc1ccc(OP(=O)(O)O)cc1)C(=O)N[C@@H](CC(C)C)C(=O)N1CCC[C@H]1C(=O)NCCCCCC(N)=O [4-[(2S)-2-{[(2S)-1-[(2S)-2-[(5-carbamoylpentyl)carbamoyl]pyrrolidin-1-yl]-4-methyl-1-oxopentan-2-yl]carbamoyl}-2-acetamidoethyl]phenoxyphosphonic acid] (Ac-[pY]LP[Ahx]-NH2), the IC50 was 9.78 µM.

CC(C)C[C@H](NC(=O)[C@H](Cc1ccc(OP(=O)(O)O)cc1)NC(=O)CCc1ccccc1)C(=O)N1CCC[C@H]1C(=O)N[C@@H](CCC(N)=O)C(=O)N[C@H](C(N)=O)C(C)O (stereo partly drawn) [4-[(2S)-2-{[(2S)-1-[(2S)-2-{[(1S)-3-carbamoyl-1-{[(1S,2S)-1-carbamoyl-2-hydroxypropyl]carbamoyl}propyl]carbamoyl}pyrrolidin-1-yl]-4-methyl-1-oxopentan-2-yl]carbamoyl}-2-(3-phenylpropanamido)ethyl]phenoxyphosphonic acid] (Hydrocinnamoyl-[pY]LPQ[Thr(3ξ)]-NH2) was tested, and the IC50 (pH 7.5, 22 °C) was 0.276 µM.

CC(=O)N[C@@H](Cc1ccc(OP(=O)(O)O)cc1)C(=O)N[C@@H](CC(C)C)C(=O)N1CCC[C@H]1C(=O)N1CCN(CC(N)=O)CC1 [4-[(2S)-2-{[(2S)-1-[(2S)-2-{[4-(carbamoylmethyl)piperazin-1-yl]carbonyl}pyrrolidin-1-yl]-4-methyl-1-oxopentan-2-yl]carbamoyl}-2-acetamidoethyl]phenoxyphosphonic acid] showed an IC50 of 1.4 µM.

CC(=O)N[C@@H](Cc1ccc(OP(=O)(O)O)cc1)C(=O)N[C@@H](CC(C)C)C(=O)N1CCC[C@H]1C(=O)NCCCC(N)=O [4-[(2S)-2-{[(2S)-1-[(2S)-2-[(3-carbamoylpropyl)carbamoyl]pyrrolidin-1-yl]-4-methyl-1-oxopentan-2-yl]carbamoyl}-2-acetamidoethyl]phenoxyphosphonic acid] (Ac-[pY]LP[GABA]-NH2) was tested, and the IC50 was 1.78 µM.

In the case of CC(=O)N[C@@H](Cc1ccc(OP(=O)(O)O)cc1)C(=O)N[C@@H](CC(C)C)C(=O)N1CCC[C@@H]1C(=O)N[C@@H](CCC(N)=O)C(=O)N[C@H](C(N)=O)C(C)O (stereo partly drawn) [4-[(2S)-2-{[(2S)-1-[(2R)-2-{[(1S)-3-carbamoyl-1-{[(1S,2S)-1-carbamoyl-2-hydroxypropyl]carbamoyl}propyl]carbamoyl}pyrrolidin-1-yl]-4-methyl-1-oxopentan-2-yl]carbamoyl}-2-acetamidoethyl]phenoxyphosphonic acid], the IC50 (pH 7.5, 22 °C) is reported as greater than 100 µM.

CC(=O)N[C@@H](Cc1ccc(OP(=O)(O)O)cc1)C(=O)N[C@@H](CC(C)C)C(=O)N1CCC[C@H]1C(=O)NC1CCCC(C(N)=O)C1 (stereo partly drawn) [4-[(2S)-2-{[(2S)-1-[(2S)-2-[(3-carbamoylcyclohexyl)carbamoyl]pyrrolidin-1-yl]-4-methyl-1-oxopentan-2-yl]carbamoyl}-2-acetamidoethyl]phenoxyphosphonic acid] gave an IC50 of 9.81 µM.

CC(=O)N[C@@H](Cc1ccc(OP(=O)(O)O)cc1)C(=O)N[C@H](C(=O)N1CCC[C@H]1C(=O)N[C@@H](CCC(N)=O)C(=O)N[C@H](C(N)=O)C(C)O)C(C)C (stereo partly drawn) [4-[(2S)-2-{[(2S)-1-[(2S)-2-{[(1S)-3-carbamoyl-1-{[(1S,2S)-1-carbamoyl-2-hydroxypropyl]carbamoyl}propyl]carbamoyl}pyrrolidin-1-yl]-3-methyl-1-oxobutan-2-yl]carbamoyl}-2-acetamidoethyl]phenoxyphosphonic acid] (Ac-[pY]VPQ[Thr(3ξ)]-NH2) showed an IC50 (pH 7.5, 22 °C) of 1.54 µM.
